Laboratory results from patent publication US7879792B2, “Synthetic peptide inhibitors of thrombin and thrombin activation of protease activated receptors 1 and 4” (The Regents of the University of Michigan, priority 2005, dated 2011).
Where a SMILES comes first, the peptide text is derived from it.

Legend:
[1] = stability testing in intestinal homogenate; assay type: in vitro ADME; details: rat
Method: Stability testing of the various compounds was performed in buffer, intestinal perfusate, and an intestinal homogenate preparation to assess the potential oral availability of these compounds. Initial studies prepared the tissue for stability studies. The buffer used in stability testing is 10 mM MES (pH 6.5) containing 135 mM NaCl, and 5 mM KCl. To collect intestinal perfusate from rats, male Sprague Dawley rats, 8 to 10 weeks old, weighing 250 to 350 g were fasted 15 to 18 hours with water given ad libitum. Anesthesia was administered by intramuscular injection of pentobarbital/ketamine (40 mg/kg and 80 mg/kg, respectively). The rats were placed on a warming pad under a surgical lamp to maintain body temperature and jejunal intestinal segments were exposed through a midline, abdominal incision. Approximately 20 cm segment of the jejunum (2 to 4 cm distal to the ligament of Treitz) was cannulated and the intestinal segments were perfused with 10 mM MES (pH 6.5) containing 135 mM NaCl, and 5 mM KCl at a flow-rate of 0.5 ml/min at 37° C. using a constant infusion pump (Harvard Apparatus, South Natick, Mass.). The collected perfusate was stored at −80° C. until use for ex vivo stability studies. After collection, the perfused intestinal segments were flushed with ice-cold 0.15 M KCl solution and the animal was euthanized and the jejunal intestinal segment detached. The inner intestinal tissue layers are scraped out and homogenized in MES buffer (pH 6.5) in a ratio of 1 part of intestinal tissue to 5 parts buffer. Total protein content of the perfusate and the homogenate were determined using a Biorad protein assay kit. The intestinal homogenate samples were used immediately or rapidly frozen at −80° C. until stability analysis.
The actual stability testing protocol is as follows: A 0.1 ml aliquot of the synthetic peptide solution (1 mg/ml) was added to 0.9 ml of MES buffer, pH 6.5, intestinal perfusate, or intestinal homogenate at 37° C. Samples were mixed by vortexing and 100 microliter aliquots were removed over a 60 to 90 minute period for analysis of breakdown products. The 100 microliter sample aliquots were diluted 10 fold with water and subjected to solid phase extraction using a Waters Oasis HLB column. Briefly, the columns were preconditioned by passing 1 ml of MeOH and 1 ml of water over the column, and 1 ml of sample was added to the column. The column was washed with 5% methanol:95% water solution to remove proteins and salts, then eluted with 1 ml of 100% methanol. The methanol was removed by vacuum, and the sample was reconstituted in mobile phase for LC/MS/MS analysis.
LC/MS/MS analysis was performed on a HP1100 HPLC (Hewlett Packard) interfaced with a Quattro II MS/MS detector (Waters/Micromass). For the HPLC separation, a 10 μL aliquot of sample in a mobile phase consisting of an equal volume mixture of acetonitrile/water containing 0.5% formic acid was injected onto a 150 mm×2.2 mm, 5 μm C8 column (Higgins Analytical Inc) and developed at a flow rate of 0.2 ml/min for 5 minutes. The MS detector was used in single ion recording mode at a cone voltage of 50 Volts.

[2] = test system: normal human citrated plasma; test: prothrombin time (PT); assay type: biochemical
Method: (§1) The influence of the various peptide formulations used in the present invention on established coagulation-based assays was determined. The activated partial thromboplastin time (APTT) is performed by mixing 0.05 ml normal human citrated plasma with 0.05 ml activated partial thromboplastin reagent purchased from Organon Teknika, Research Triangle Park, NC in the absence or presence of a peptide inhibitor. After incubation for 5 min at 37° C., the mixture is recalcified with 0.05 ml of 30 mM calcium chloride and the time to clot formation is measured in an Amelung KC4A instrument (Sigma Chemical Corp, St. Louis, Mo.) (Hasan et al. Thrombosis and Haemostasis. 82, 1182-1187 (1999)). The prothrombin time (PT) is performed by mixing 0.05 ml normal human citrated plasma with 0.05 ml Simplastin (Organon Teknika, Research Triangle Park, NC) followed by incubation for 3 min at 37° C. in the absence or presence of a peptide inhibitor. At the addition of 0.05 ml of 30 mM calcium chloride, the time to clot formation is measured in an KC4A instrument (Sigma Chemical Corp, St. Louis, Mo.) (Hasan et al. Thrombosis and Haemostasis. 82, 1182-1187 (1999)). The thrombin clotting time (TCT) is performed by adding 0.1 ml normal human citrated plasma in the absence or presence of a peptide inhibitor and 0.05 ml of a α-thrombin solution such that the final concentration of the thrombin in the entire mixture was 1 nM. Upon addition of the thrombin, the time to clot formation is measured in an KC4A instrument (Sigma Chemical Corp, St. Louis, Mo.).

[3] = test system: normal human citrated plasma; test: activated partial thromboplastin time (APTT); assay type: biochemical
Method: as §1

γ-thrombin = test: inhibition of γ-thrombin hydrolysis of chromogenic substrate; assay type: biochemical, human; details: read-out: Ki (μM) + SD, γIIa (2 nM); gamma-thrombin 2 nM, Sar-Pro-Arg-paranitroanilide
[4] = test system: normal human citrated plasma; test: thrombin clotting time (TCT); assay type: biochemical; details: 1 nM thrombin
Method: as §1

## N=C(N)NCCC[C@@H](N)C(=O)N1[C@H](C(=O)N2CCC[C@H]2C(=O)NCC(=O)N[C@@H](Cc2ccccc2)C(N)=O)C[C@@H]2CCCC[C@@H]21 [rOicPGF, D-Arg-Oic-Pro-Gly-Phe, reference compound] (HELM PEPTIDE1{[dR].[O=C([C@@H]1C[C@@H]2CCCC[C@@H]2N1[*:1])[*:2]].P.G.F.[am]}$$$$V2.0)
[1]; male, Sprague Dawley, intestinal homogenate, pH 6.5, 37° C., read-out: t1/2 (min) Intestinal Homogenate
  half-life at 0.1 mg/ml: 40.3 min
[1]
  stability in intestinal homogenate (FIG. 12): less stable

## Cc1ccc(C[C@H](NC(=O)[C@@H](C)NC(=O)[C@@H]2CCCN2C(=O)[C@@H]2C[C@@H]3CCCC[C@@H]3N2C(=O)[C@H](N)CCCNC(=N)N)C(N)=O)cc1 [rOicPaF(p-Me), D-Arg-Oic-Pro-D-Ala-Phe(p-Me)] (HELM PEPTIDE1{[dR].[O=C([C@@H]1C[C@@H]2CCCC[C@@H]2N1[*:1])[*:2]].P.[dA].[Cc1ccc(C[C@H](N[*:1])C(=O)[*:2])cc1].[am]}$$$$V2.0)
[2]
  peptide concentration with significant prolongation (p<0.05) of the PT: 1.56 µM
[3]
  peptide concentration with significant prolongation (p<0.05) of the APTT: 1.56 µM
γ-thrombin
  Ki: 54.3 ± 16 µM
[4]
  peptide concentration with significant prolongation (p<0.05) of the TCT: 0.78 µM
